Data on 32 molecules can be found in patent publication US7317007B2, “Benzothiazole derivatives with activity as adenosine receptor ligands” (Hoffmann-La Roche Inc., priority 2000, dated 2008).

Read-outs that look alike come from different tables or passages of the source.

Series [1] addresses T1, human adenosine A2A receptor (Homo sapiens, UniProt P29274).
T1 construct: expressed in transfected cells; host or cells: CHO cells, Semliki Forest virus expression system; washed membrane pellet used
The series can be described thus: [3H]-SCH-58261 binding assay at the human adenosine A2A receptor. The procedure: Human Adenosine A2A Receptor
The human adenosine A2A receptor was recombinantly expressed in chinese hamster ovary (CHO) cells using the semliki forest virus expression system. Cells were harvested, washed twice by centrifugation, homogenised and again washed by centrifugation. The final washed membrane pellet was suspended in a Tris (50 mM) buffer containing 120 mM NaCl, 5 mM KCl, 2 mM CaCl2 and 10 mM MgCl2 (pH 7.4) (buffer A). The [^3H]-SCH-58261 (Dionisotti et al., 1997, Br J Pharmacol 121, 353; 1 nM) binding assay was carried out in 96-well plates in the presence of 2.5 μg of membrane protein, 0.5 mg of Ysi-poly-1-lysine SPA beads and 0.1 U adenosine deaminase in a final volume of 200 μl of buffer A. Non-specific binding was defined using xanthine amine congener (XAC; 2 μM). Compounds were tested at 10 concentrations from 10 μM-0.3 nM. All assays were conducted in duplicate and repeated at least two times. Assay plates were incubated for 1 hour at room temperature before centrifugation and then bound ligand determined using a Packard Topcount scintillation counter. IC50 values were calculated using a non-linear curve fitting program and Ki values calculated using the Cheng-Prussoff equation.

Where [2] appears, read: read-out: pKi value (converted).

T1 sequence (P29274 whole entry): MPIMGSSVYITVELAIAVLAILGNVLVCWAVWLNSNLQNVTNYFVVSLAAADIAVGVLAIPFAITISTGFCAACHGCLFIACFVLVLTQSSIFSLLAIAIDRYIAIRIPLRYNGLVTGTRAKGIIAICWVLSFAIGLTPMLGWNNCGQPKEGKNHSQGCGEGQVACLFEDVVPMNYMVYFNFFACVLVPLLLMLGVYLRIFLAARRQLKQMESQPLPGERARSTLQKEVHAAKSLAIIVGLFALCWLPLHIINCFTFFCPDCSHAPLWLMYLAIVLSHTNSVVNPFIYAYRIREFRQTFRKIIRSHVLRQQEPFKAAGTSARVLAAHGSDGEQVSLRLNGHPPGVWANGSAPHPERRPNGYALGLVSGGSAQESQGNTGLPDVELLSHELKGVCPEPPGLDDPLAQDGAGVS

Consider `CCOC(=O)C(=O)Nc1nc2c(OC)ccc(-c3ccccc3)c2s1` [Example 47, N-(4-Methoxy-7-phenyl-benzothiazol-2-yl)-oxalamic acid ethyl ester], for which the melting point (in general, the temperature, or range, at which the solid turns liquid) lay in the range of 138 to 142 °C. `COc1ccc(-c2csc(N3CCOCC3)n2)c2sc(NC(=O)c3ccc(F)cc3)nc12` [Example 216, 4-Fluoro-N-[4-methoxy-7-(2-morpholin-4-yl-thiazol-4-yl)-benzothiazol-2-yl]-benzamide] had a melting point of 225 to 227 °C. Same read-out and setting: under `COc1ccc(-c2csc(N)n2)c2sc(NC(=O)c3ccc(F)cc3)nc12` [Example 217, N-[7-(2-Amino-thiazol-4-yl)-4-methoxy-benzothiazol-2-yl]-4-fluoro-benzamide] stands 262 to 264 °C; under `COc1ccc(-c2csc(N(C)C)n2)c2sc(NC(=O)c3ccc(F)cc3)nc12` [Example 219, N-[7-(2-Dimethylamino-thiazol-4-yl)-4-methoxy-benzothiazol-2-yl]-4-fluoro-benzamide], 218 to 220 °C. As for `COc1ccc(-c2cccs2)c2sc(NC(=O)c3ccc(F)cc3)nc12` [Example 220, 4-Fluoro-N-(4-methoxy-7-thiophen-2-yl-benzothiazol-2-yl)-benzamide], the melting point lay in the range of 242 to 250 °C. The same measure, in the same setting: in the case of `COc1ccc(-c2csc(-c3ccccn3)n2)c2sc(NC(=O)c3ccc(F)cc3)nc12` [Example 222, 4-Fluoro-N-[4-methoxy-7-(2-pyridin-2-yl-thiazol-4-yl)-benzothiazol-2-yl]-benzamide] it was 150 °C (dec.); in that of `COc1ccc(-c2csc(C)n2)c2sc(NC(=O)c3ccc(F)cc3)nc12` [Example 224, 4-Fluoro-N-[4-methoxy-7-(2-methyl-thiazol-4-yl)-benzothiazol-2-yl]-benzamide], 217 to 219 °C. Consider `COc1ccc(-c2ccc(C)s2)c2sc(NC(=O)c3ccc(F)cc3)nc12` [Example 225, 4-Fluoro-N-[4-methoxy-7-(5-methyl-thiophen-2-yl)-benzothiazol-2-yl]-benzamide], for which the melting point is 192 to 196 °C (dec.). Same read-out and setting: under `COc1ccc(-c2csc(-c3ccc(C)nc3)n2)c2sc(NC(=O)c3ccc(CCl)cc3)nc12` [Example 228, 4-Chloromethyl-N-{4-methoxy-7-[2-(6-methyl-pyridin-3-yl)-thiazol-4-yl]-benzothiazol-2-yl}-benzamide] stands 230 to 250 °C; under `COc1ccc(-c2csc(NC(c3ccccc3)(c3ccccc3)c3ccccc3)n2)c2sc(NC(=O)c3ccc(CCl)cc3)nc12` [Example 229, 4-Chloromethyl-N-{4-methoxy-7-[2-(trityl-amino)-thiazol-4-yl]-benzothiazol-2-yl}-benzamide], 163 °C (dec.); under `COc1ccc(-c2cccs2)c2sc(NC(=O)c3ccc(CCl)cc3)nc12` [Example 231, 4-Chloromethyl-N-(4-methoxy-7-thiophen-2-yl-benzothiazol-2-yl)-benzamide], 183 to 209 °C (dec.).

As to `COc1ccc(-c2csc(-c3ccccn3)n2)c2sc(NC(=O)c3ccc(CCl)cc3)nc12` [Example 232, 4-Chloromethyl-N-[4-methoxy-7-(2-pyridin-2-yl-thiazol-4-yl)-benzothiazol-2-yl]-benzamide], the melting point fell in the range of 195 to 201 °C. Same read-out and setting: under `COc1ccc(-c2csc(C)n2)c2sc(NC(=O)c3ccc(CCl)cc3)nc12` [Example 233, 4-Chloromethyl-N-[4-methoxy-7-(2-methyl-thiazol-4-yl)-benzothiazol-2-yl]-benzamide] stands 140 to 145 °C; under `COc1ccc(-c2ccc(C)s2)c2sc(NC(=O)c3ccc(CCl)cc3)nc12` [Example 234, 4-Chloromethyl-N-[4-methoxy-7-(5-methyl-thiophen-2-yl)-benzothiazol-2-yl]-benzamide], 130 to 146 °C. Molecule `COCCN(C)Cc1ccc(C(=O)Nc2nc3c(OC)ccc(-c4csc(NC(c5ccccc5)(c5ccccc5)c5ccccc5)n4)c3s2)cc1` [Example 236, 4-{[(2-Methoxy-ethyl)-methyl-amino]-methyl}-N-{4-methoxy-7-[2-(trityl-amino)-thiazol-4-yl]-benzothiazol-2-yl}-benzamide] registered a melting point of 119 to 128 °C. The molecule `COCCN(C)Cc1ccc(C(=O)Nc2nc3c(OC)ccc(-c4csc(N(C)C)n4)c3s2)cc1` [Example 239, N-[7-(2-Dimethylamino-thiazol-4-yl)-4-methoxy-benzothiazol-2-yl]-4-{[(2-methoxy-ethyl)-methyl-amino]-methyl}-benzamide] yielded a melting point of 85 to 95 °C. Molecule `COCCN(C)Cc1ccc(C(=O)Nc2nc3c(OC)ccc(-c4csc(C)n4)c3s2)cc1` [Example 242, 4-{[(2-Methoxy-ethyl)-methyl-amino]-methyl}-N-[4-methoxy-7-(2-methyl-thiazol-4-yl)-benzothiazol-2-yl]-benzamide] returned a melting point of 140 to 145 °C. Same read-out and setting: in the case of `COCCN(C)Cc1ccc(C(=O)Nc2nc3c(OC)ccc(-c4ccc(C)s4)c3s2)cc1` [Example 243, 4-{[(2-Methoxy-ethyl)-methyl-amino]-methyl}-N-[4-methoxy-7-(5-methyl-thiophen-2-yl)-benzothiazol-2-yl]-benzamide] it was 83 to 90 °C; in that of `COc1ccc(-c2csc(N3CCCC3)n2)c2sc(NC(=O)c3ccnc(C)c3)nc12` [Example 255, N-[4-Methoxy-7-(2-pyrrolidin-1-yl-thiazol-4-yl)-benzothiazol-2-yl]-2-methyl-isonicotinamide], 195 to 215 °C; in that of `COc1ccc(-c2csc(N3CCN(C)CC3)n2)c2sc(NC(=O)N3CCOCC3)nc12` [Example 261, Morpholine-4-carboxylic acid {4-methoxy-7-[2-(4-methyl-piperazin-1-yl)-thiazol-4-yl]-benzothiazol-2-yl}-amide], 150 to 170 °C. In the case of `COc1ccc(-c2csc(N3CCCCC3)n2)c2sc(NC(=O)N3CCOCC3)nc12` [Example 262, Morpholine-4-carboxylic acid [4-methoxy-7-(2-piperidin-1-yl-thiazol-4-yl)-benzothiazol-2-yl]-amide], the melting point is 227 to 234 °C. Same read-out and setting: under `COc1ccc(-c2cccs2)c2sc(NC(=O)N3CCOCC3)nc12` [Example 263, Morpholine-4-carboxylic acid (4-methoxy-7-thiophen-2-yl-benzothiazol-2-yl)-amide] stands 175 to 182 °C (dec.); under `COc1ccc(-c2ccc(C)s2)c2sc(NC(=O)N3CCOCC3)nc12` [Example 264, Morpholine-4-carboxylic acid [4-methoxy-7-(5-methyl-thiophen-2-yl)-benzothiazol-2-yl]-amide], 173 to 180 °C (dec.). In the case of `COc1ccc(N2CCOCC2)c2sc(NC(=O)c3ccc(Cn4ccnc4C)cc3)nc12` [Example 308, N-(4-Methoxy-7-morpholin-4-yl-benzothiazol-2-yl)-4-(2-methyl-imidazol-1-yl-methyl)-benzamide], the Ki in series [1] (setting [2]) was 0.794 nM.

For the molecule `COc1ccc(N2CCOCC2)c2sc(NC(=O)c3ccc(CN4CCN(C)CC4)cc3)nc12` [Example 309, N-(4-Methoxy-7-morpholin-4-yl-benzothiazol-2-yl)-4-(4-methyl-piperazin-1-yl-methyl)-benzamide], the Ki in series [1] (setting [2]) was 3.16 nM. For the molecule `COCCOCc1ccc(C(=O)Nc2nc3c(OC)ccc(N4CCOCC4)c3s2)cc1` [Example 314, 4-(2-Methoxy-ethoxymethyl)-N-(4-methoxy-7-morpholin-4-yl-benzothiazol-2-yl)-benzamide], in series [1] (setting [2]), the Ki is 3.16 nM. As to `COCc1ccc(C(=O)Nc2nc3c(OC)ccc(N4CCOCC4)c3s2)cc1` [Example 315, 4-Methoxymethyl-N-(4-methoxy-7-morpholin-4-yl-benzothiazol-2-yl)-benzamide], the Ki in series [1] (setting [2]) was 2.51 nM. Take `COc1ccc(N2CCSCC2)c2sc(NC(=O)c3ccccc3)nc12` [Example 317, N-(4-Methoxy-7-thiomorpholin-4-yl-benzothiazol-2-yl)-benzamide]: in series [1] (setting [2]), the Ki was 2.51 nM. Regarding `COc1ccc(N2CCOCC2)c2sc(NC(=O)C3CCN(C(=O)OC(C)(C)C)CC3)nc12` [Example 326, 4-(4-Methoxy-7-morpholin-4-yl-benzothiazol-2-ylcarbamoyl)-piperidine-1-carboxylic acid tert-butyl ester], the Ki in series [1] (setting [2]) was 3.16 nM. Turning to `COc1ccc(N2CCOCC2)c2sc(NC(=O)C3CCN(C(C)=O)CC3)nc12` [Example 327, 1-Acetyl-piperidine-4-carboxylic acid (4-methoxy-7-morpholin-4-yl-benzothiazol-2-yl)-amide], in series [1] (setting [2]), the Ki was 3.16 nM. The molecule `COc1ccc(N2CCOCC2)c2sc(NC(=O)N3CCC(=O)CC3)nc12` [Example 342, 4-Oxo-piperidine-1-carboxylic acid (4-methoxy-7-morpholin-4-yl-benzothiazol-2-yl)-amide] gave a Ki in series [1] of 3.16 nM.

As for `COC(=O)N(C)Cc1ccc(C(=O)Nc2nc3c(OC)ccc(N4CCOCC4)c3s2)cc1` [Example 369, [4-(4-Methoxy-7-morpholin-4-yl-benzothiazol-2-ylcarbamoyl)-benzyl]-methyl-carbamic acid methyl ester], the Ki in series [1] (setting [2]) was 0.631 nM.
